In patent US4389412A, “Substituted cyclopropanecarboxylic acid esters and pesticidal compositions containing the same as active ingredient” (priority 1979, dated 1983):

How the values were obtained:
pests = assay: Pesticidal effectiveness, overall; details: in vivo
Description: The pesticidal activity of the compounds according to this invention against green rice leafhoppers (Nephotettix cincticeps Uhler), rice stem borers (Chilo suppressalis Walker), tobacco cutworms (Prodenia litura […]) and houseflies (Musca domestica), as examples of the pests against which the same compounds are considered effective, the acute toxicity data on the same compounds as determined in rat by the oral route and the median tolerance limit (TLm) data on the same compounds as determined in killifish (Orizias latipes) and guppies (Lebistes reticulatus) are shown in Table 1 alongside the corresponding values for various control compounds. The pesticidal effects were determined by the procedures set forth in Test Examples 1 through 4, while the acute toxicity to rat was determined by the procedure set forth in Test Example 9 and the toxicity to fish was determined by the procedures set forth in Test Examples 6 and 7, all those Examples appearing hereinafter.

fish [1] = assay: Fish toxicity safety factor (TLm divided by maximum concentration in cover water); parameters: species or system carp
Outline: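 Calculated index: carp TLm (ppm) divided by the maximum compound concentration expected in paddy cover water. That concentration assumes 100 l of solution at the pest LC50 applied per 10 ares onto 5 cm deep cover water, all of it entering the water.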

fish [2] = assay: Toxicity to fish compared with other pyrethroids
Description: This invention is the culmination of the above findings.

[3] = tested on: tobacco cutworm (Prodenia litura); assay: Utility Example-5: spray on soy bean leaves, tobacco cutworm larvae; assay type: in vivo; details: 48 h, 2 days
Method: An acetone solution of one of the test compounds as mentioned in Table 13 and Tween-20 (the same surfactant as mentioned hereinbefore) was prepared. This acetone solution was diluted with water to prepare a solution containing the test compound in a predetermined concentration. Leaves of soy bean in pots were sprayed with the above diluted solution at the rate of 20 ml/pot and, after one day, ten 3-instar larvae of tobacco cutworm (Prodenia litura) were released on the leaves. The pots were kept in a constant-temperature chamber at 25° C.

crop plants = assay: Phytotoxicity test; assay type: in vivo; details: 2,000 ppm solution on leaves, after 10 days
Description: A 2,000 ppm solution of each of the cis- and trans-isomers and a 50:50 mixture of cis- and trans-isomers of Compound (1) and of Compound (2), and a 50:50 mixture of the cis- and trans-isomers of Compound (B) and Compound (E) was applied to the leaves of the following crop plants.
After 10 days, the crop plants were examined for their phytotoxicities.

[4] = Acute toxicity test in rat by the oral route; assay type: in vivo; details: in vivo, male rat, in olive oil, after 7 days
Description: (§1) Acute toxicity test in rat by the oral route

[5] = tested on: guppies (Lebistes reticulatus); assay: Fish toxicity test with guppies; assay type: in vivo; details: Table 1; 48 hrs.
Outline: (§2)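 Ten female guppies, 3–4 months old, held at 20 °C in water containing surfactant and test compound added in acetone solution. TLm (median tolerance limit, ppm) determined.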

[6] = Fish toxicity test with guppies; assay type: in vivo, Lebistes reticulatus; details: guppy, water, guppies, 20° C., read-out: TLm (48 hrs.)
Outline: as §2

[7] = tested on: killifish (Orizias latipes); assay: Fish toxicity test with killifish; assay type: in vivo; details: Table 1; 48 hrs.
Outline: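 Test compound dispensed from acetone solution into water at set concentrations; ten aerated-water killifish (~0.25 g, ~2.5 cm) held at 25±1° C. Deaths scored after 48 hours; TLm (median tolerance limit, ppm) determined.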

rat = assay: Acute toxicity test in rat by the oral route; assay type: in vivo; details: Table 1, rat, 10080 min
Description: as §1

carp (Cyprinus carpio L) = assay: Fish toxicity test with carp; assay type: in vivo; details: 48 hrs., 21±1° C.; 2880 min
Outline: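 Compound in acetone with Tween-20 dispersed in 50 L aerated water at a set concentration; five carp (about 6 g, 6 cm) exposed at 21±1° C. Deaths checked after 48 h, and TLm (median tolerance limit, ppm) determined.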

SMILES | pesticidal effectiveness in words (pests) | concentration which kills 50% of pests as fraction of concentration which kills 50% of fish (fish [1]) | toxicity to fish in words (fish [2]) | mortality at 6.5 ppm [3] | mortality at 13 ppm [3] | phytotoxicity (crop plants) | LD50 at 168 h [4] | Toxicity to fish TLm, guppy [5] | LC50 at 48 h [6] | Toxicity to fish TLm, killifish [7] | Acute oral toxicity to rat LD50 (rat) | TLm, Carp (48 hrs.) (carp (Cyprinus carpio L)) | Fish toxicity safety factor (fish [1]; TLm / maximum concentration in cover water at LC50 application (100 l per 10 ares, 5 cm depth))
C#CC(OC(=O)[C@@H]1[C@@H](C=C(Cl)Cl)C1(C)C)c1cccc(Oc2ccc(Cl)cc2)c1 (relative stereo) [Compound (2) trans-] | outstanding in pesticidal activity against various pests | less than 1/28 | by far low in toxicity to fish |  |  |  |  |  |  |  |  |  | 
CC1(C)C(C=C(Cl)Cl)C1C(=O)OCc1cccc(Oc2ccccc2)c1 (stereo not drawn) [Compound (B), Permethrin] |  |  |  | 60% | 90% | did not cause any injury to each one of the crop plants | 300 mg/kg | < 0.5 ppm | < 0.5 µg/mL |  |  |  | 
C#CC(OC(=O)C1C(C=C(Cl)Cl)C1(C)C)c1cccc(Oc2ccc(Cl)cc2)c1 (stereo not drawn) [Compound (2) cis-/trans- = 50:50, 3-(4-chlorophenoxy)-α-ethynylbenzyl 2,2-dimethyl-3-(2,2-dichlorovinyl)cyclopropanecarboxylate] |  |  |  | 100% | 100% |  | > 3000 mg/kg | > 10 ppm | > 10 µg/mL | > 10 ppm | > 3000 mg/kg | 2.8 ppm | 7.4
